Test results taken from US20210045385A1, “PYRIDAZINONE-SUBSTITUTED KETOXIMES AS HERBICIDES” (FMC Corporation, priority 2018, published 2021).

Columns and labels:
Format in all cases: in vivo
[1] = tested on: rice (Oryza sativa); assay: Test B flooded paddy test, visual plant response rating; settings: 250 g ai/ha, Flood, applied to paddy water, 2-leaf stage, evaluated after 13 to 15 days
How it was run: (§1)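 Flooded-pot treatment: water 3 cm over the soil, chemical delivered into that water, depth unchanged for the duration. Assessed by eye versus controls following 13–15 greenhouse days; plants were at 2 leaves when dosed.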

[2] = tested on: ducksalad (Heteranhera limosa); assay: as above; settings: 250 g ai/ha, Flood, applied to paddy water, 2-leaf stage, evaluated after 13 to 15 days
How it was run: as §1

[3] = tested on: sedge, umbrella (small-flower umbrella sedge, Cyperus difformis); assay: as above; settings: 250 g ai/ha, Flood, applied to paddy water, 2-leaf stage, evaluated after 13 to 15 days
How it was run: as §1

[4] = tested on: barnyardgrass (Echinochloa crus-galli); assay: as above; settings: 250 g ai/ha, Flood, applied to paddy water, 2-leaf stage, evaluated after 13 to 15 days
How it was run: as §1

[5] = tested on: Italian ryegrass (Lolium multiflorum); assay: Test A preemergence, visual plant response rating; settings: for Ryegrass, Italian plant response rating (0 to 100 scale): approx. 10 days; for Ryegrass, Italian plant response rating: preemergence, 0 to 100 scale, 0 no effect, 100 complete control
How it was run: (§2)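 Greenhouse evaluation, approx. 10 days post-spray. Soil: loam + sand. Postemergence stage: 1–2 leaves, height 2–10 cm. Vehicle: non-phytotoxic solvent blend with surfactant. Score: visual injury on a 0 (no effect) to 100 (complete control) scale.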

[6] = tested on: foxtail, giant (giant foxtail, Setaria faberii); assay: Test A preemergence, visual plant response rating; settings: for Foxtail, Giant plant response rating (0 to 100 scale): approx. 10 days; for Foxtail, Giant plant response rating: preemergence, 0 to 100 scale, 0 no effect, 100 complete control
How it was run: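 Preemergence: seeds in loam/sand blend given directed soil spray of compound in non-phytotoxic solvent with surfactant. Postemergence: plants 2–10 cm, one- to two-leaf stage, sprayed with same formulation. Visual injury rated vs untreated controls after ~10 days in greenhouse, 0 (no effect) to 100 (complete control).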

[7] = tested on: barnyardgrass (Echinochloa crus-galli); assay: Test A preemergence, visual plant response rating; settings: for Barnyardgrass plant response rating (0 to 100 scale): approx. 10 days; for Barnyardgrass plant response rating: preemergence, 0 to 100 scale, 0 no effect, 100 complete control
How it was run: as §2

[8] = tested on: pigweed (Amaranthus retroflexus); assay: Test A preemergence, visual plant response rating; settings: for Pigweed plant response rating (0 to 100 scale): approx. 10 days; for Pigweed plant response rating: preemergence, 0 to 100 scale, 0 no effect, 100 complete control
How it was run: as §2

[9] = tested on: ragweed (common ragweed, Ambrosia elatior); assay: Test A preemergence, visual plant response rating; settings: for Ragweed plant response rating (0 to 100 scale): approx. 10 days; for Ragweed plant response rating: preemergence, 0 to 100 scale, 0 no effect, 100 complete control
How it was run: as §2

[10] = tested on: kochia (Kochia scoparia); assay: Test A preemergence, visual plant response rating; settings: for Kochia plant response rating (0 to 100 scale): approx. 10 days; for Kochia plant response rating: preemergence, 0 to 100 scale, 0 no effect, 100 complete control
How it was run: as §2

[11] = tested on: Italian ryegrass (Lolium multiflorum); assay: Test A postemergence, visual plant response rating; settings: for Ryegrass, Italian plant response rating: Postemergence, 125 g ai/ha, 0 to 100 scale (0 no effect, 100 complete control)
How it was run: as §2

[12] = tested on: wheat (Triticum aestivum); assay: Test A postemergence, visual plant response rating; settings: for Wheat plant response rating: Postemergence, 125 g ai/ha, 0 to 100 scale (0 no effect, 100 complete control)
How it was run: as §2

[13] = tested on: corn (Zea mays); assay: Test A postemergence, visual plant response rating; settings: for Corn plant response rating: Postemergence, 125 g ai/ha, 0 to 100 scale (0 no effect, 100 complete control)
How it was run: as §2

[14] = tested on: foxtail, giant (giant foxtail, Setaria faberii); assay: Test A postemergence, visual plant response rating; settings: for Foxtail, Giant plant response rating: Postemergence, 125 g ai/ha, 0 to 100 scale (0 no effect, 100 complete control)
How it was run: as §2

[15] = tested on: barnyardgrass (Echinochloa crus-galli); assay: Test A postemergence, visual plant response rating; settings: for Barnyardgrass plant response rating: Postemergence, 125 g ai/ha, 0 to 100 scale (0 no effect, 100 complete control)
How it was run: as §2

[16] = tested on: galium (catchweed bedstraw, Galium aparine); assay: Test A postemergence, visual plant response rating; settings: for Galium plant response rating: Postemergence, 125 g ai/ha, 0 to 100 scale (0 no effect, 100 complete control)
How it was run: as §2

[17] = tested on: pigweed (Amaranthus retroflexus); assay: Test A postemergence, visual plant response rating; settings: for Pigweed plant response rating: Postemergence, 125 g ai/ha, 0 to 100 scale (0 no effect, 100 complete control)
How it was run: as §2

[18] = tested on: ragweed (common ragweed, Ambrosia elatior); assay: Test A postemergence, visual plant response rating; settings: for Ragweed plant response rating: Postemergence, 125 g ai/ha, 0 to 100 scale (0 no effect, 100 complete control)
How it was run: as §2

[19] = tested on: kochia (Kochia scoparia); assay: Test A postemergence, visual plant response rating; settings: for Kochia plant response rating: Postemergence, 125 g ai/ha, 0 to 100 scale (0 no effect, 100 complete control)
How it was run: as §2

[20] = tested on: blackgrass (Alopecurus myosuroides); assay: Test A postemergence, visual plant response rating; settings: for Blackgrass plant response rating: Postemergence, 125 g ai/ha, 0 to 100 scale (0 no effect, 100 complete control)
How it was run: as §2

[21] = 500 g ai/ha, postemergence, 0 is no effect, 100 is complete control
[22] = 1000 g ai/ha Postemergence, approx. 10 days

SMILES	Plant response rating, Rice (0 to 100 scale, 0 is no effect, 100 is complete control) [1]	Plant response rating, Ducksalad (0 to 100 scale, 0 is no effect, 100 is complete control) [2]	Plant response rating, Sedge, Umbrella (0 to 100 scale, 0 is no effect, 100 is complete control) [3]	Plant response rating, Barnyardgrass (0 to 100 scale, 0 is no effect, 100 is complete control) [4]	Ryegrass, Italian plant response rating (0 to 100 scale) ([5]; 500 g ai/ha Preemergence)	Foxtail, Giant plant response rating (0 to 100 scale) ([6]; 500 g ai/ha Preemergence)	Barnyardgrass plant response rating (0 to 100 scale) ([7]; 500 g ai/ha Preemergence)	Pigweed plant response rating (0 to 100 scale) ([8]; 500 g ai/ha Preemergence)	Ragweed plant response rating (0 to 100 scale) ([9]; 500 g ai/ha Preemergence)	Kochia plant response rating (0 to 100 scale) ([10]; 500 g ai/ha Preemergence)	Ryegrass, Italian plant response rating (0 to 100 scale) [11, 21]	Ryegrass, Italian plant response rating [11]	Wheat plant response rating (0 to 100 scale) [12, 21]	Wheat plant response rating [12]	Corn plant response rating (0 to 100 scale) [13, 21]	Corn plant response rating [13]	Foxtail, Giant plant response rating (0 to 100 scale) [14, 21]	Foxtail, Giant plant response rating [14]	Barnyardgrass plant response rating (0 to 100 scale) [15, 21]	Barnyardgrass plant response rating [15]	other results
CON=C(c1cccc(Cl)c1)c1c(O)c(C)nn(C2CC2)c1=O (mixture of isomers) [Compound 33]	0	0	0	0	60	0	0	70	20	10	60	10	20	0	0	0	10	0	0	0	Ryegrass, Italian plant response rating (0 to 100 scale) ([5]; 125 g ai/ha Preemergence): 20; Foxtail, Giant plant response rating (0 to 100 scale) ([6]; 125 g ai/ha Preemergence): 0; Barnyardgrass plant response rating (0 to 100 scale) ([7]; 125 g ai/ha Preemergence): 0; Pigweed plant response rating (0 to 100 scale) ([8]; 125 g ai/ha Preemergence): 0; Ragweed plant response rating (0 to 100 scale) ([9]; 125 g ai/ha Preemergence): 0; Kochia plant response rating (0 to 100 scale) ([10]; 125 g ai/ha Preemergence): 0; Galium plant response rating (0 to 100 scale) [16, 21]: 70; Galium plant response rating [16]: 40; Pigweed plant response rating (0 to 100 scale) [17, 21]: 30; Pigweed plant response rating [17]: 10; Ragweed plant response rating (0 to 100 scale) [18, 21]: 60; Ragweed plant response rating [18]: 10; Kochia plant response rating (0 to 100 scale) [19, 21]: 40; Kochia plant response rating [19]: 20; Blackgrass plant response rating (0 to 100 scale) [20, 21]: 0; Blackgrass plant response rating [20]: 0
C=CCc1ccccc1C(=NOC)c1c(O)c(C)nn(C)c1=O [Compound 122]	0	0	0	0	60	80	30	90	50	10	90	70	30	0	10	0	70	50	60	20	Ryegrass, Italian plant response rating ([5]; 125 g ai/ha): 50; Foxtail, Giant plant response rating ([6]; 125 g ai/ha): 10; Barnyardgrass plant response rating ([7]; 125 g ai/ha): 0; Pigweed plant response rating ([8]; 125 g ai/ha): 20; Ragweed plant response rating ([9]; 125 g ai/ha): 10; Kochia plant response rating ([10]; 125 g ai/ha): 0; Galium plant response rating (0 to 100 scale) [16, 21]: 80; Galium plant response rating [16]: 60; Pigweed plant response rating (0 to 100 scale) [17, 21]: 70; Pigweed plant response rating [17]: 60; Ragweed plant response rating (0 to 100 scale) [18, 21]: 60; Ragweed plant response rating [18]: 50; Kochia plant response rating (0 to 100 scale) [19, 21]: 50; Kochia plant response rating [19]: 40; Blackgrass plant response rating (0 to 100 scale) [20, 21]: 40; Blackgrass plant response rating [20]: 20
CCON=C(c1cccc(C)c1)c1c(O)c(C)nn(C)c1=O (mixture of isomers) [Compound 6]	0	0	0	0																	Ryegrass, Italian plant response rating ([5]; 1000 g ai/ha): 80; Foxtail, Giant plant response rating ([6]; 1000 g ai/ha): 30; Barnyardgrass plant response rating ([7]; 1000 g ai/ha): 30; Pigweed plant response rating ([8]; 1000 g ai/ha): 70; Ragweed plant response rating ([9]; 1000 g ai/ha): 50; Kochia plant response rating ([10]; 1000 g ai/ha): 20; Ryegrass, Italian plant response rating (0 to 100 scale) [11, 22]: 70; Wheat plant response rating (0 to 100 scale) [12, 22]: 0; Corn plant response rating (0 to 100 scale) [13, 22]: 0; Foxtail, Giant plant response rating (0 to 100 scale) [14, 22]: 50; Barnyardgrass plant response rating (0 to 100 scale) [15, 22]: 30; Galium plant response rating (0 to 100 scale) [16, 22]: 90; Pigweed plant response rating (0 to 100 scale) [17, 22]: 80; Ragweed plant response rating (0 to 100 scale) [18, 22]: 90; Kochia plant response rating (0 to 100 scale) [19, 22]: 80; Blackgrass plant response rating (0 to 100 scale) [20, 22]: 10
CON=C(c1c(O)c(C)nn(C)c1=O)c1ccc(F)c2ccccc12 [Compound 51]	15	75	65	15	100	100	80	90	100	80	100	90	90	70	20	10	90	50	80	30	Ryegrass, Italian plant response rating ([5]; 125 g ai/ha): 70; Foxtail, Giant plant response rating ([6]; 125 g ai/ha): 70; Barnyardgrass plant response rating ([7]; 125 g ai/ha): 60; Pigweed plant response rating ([8]; 125 g ai/ha): 90; Ragweed plant response rating ([9]; 125 g ai/ha): 90; Kochia plant response rating ([10]; 125 g ai/ha): 10; Galium plant response rating (0 to 100 scale) [16, 21]: 100; Galium plant response rating [16]: 100; Pigweed plant response rating (0 to 100 scale) [17, 21]: 90; Pigweed plant response rating [17]: 90; Ragweed plant response rating (0 to 100 scale) [18, 21]: 100; Ragweed plant response rating [18]: 80; Kochia plant response rating (0 to 100 scale) [19, 21]: 90; Kochia plant response rating [19]: 80; Blackgrass plant response rating (0 to 100 scale) [20, 21]: 100; Blackgrass plant response rating [20]: 90
